Structures are written as SMILES.

As to `O=S(=O)(NCCO)c1cc(C#Cc2cnn3c(C(F)F)cc(-c4ccc(C(F)(F)F)cc4)nc23)c(F)cc1F` [Example 135, 5-[7-Difluoromethyl-5-(4-trifluoromethyl-phenyl)-pyrazolo[1,5-a]pyrimidin-3-ylethynyl]-2,4-difluoro-N-(2-hydroxy-ethyl)-benzenesulfonamide], the melting point is 149 to 150 °C.

For the molecule `CC(C)(O)c1ccc(C#Cc2cnn3c(CO)cc(-c4ccc(Cl)cc4)nc23)cc1` [Example 299, 2-{4-[5-(4-Chloro-phenyl)-7-hydroxymethyl-pyrazolo[1,5-a]pyrimidin-3-ylethynyl]-phenyl}-propan-2-ol], the melting point lay within 118 to 120 °C.

As to `O=S(=O)(NCCN1CCOCC1)c1ccc(C#Cc2cnn3c(C(F)(F)F)cc(-c4ccc(C(F)(F)F)cc4)nc23)s1` [Example 158, 5-[7-Trifluoromethyl-5-(4-trifluoromethyl-phenyl)-pyrazolo[1,5-a]pyrimidin-3-ylethynyl]-thiophene-2-sulfonic acid (2-morpholin-4-yl-ethyl)-amide], the melting point stood at 219 °C.

As for `Cc1cc(-c2cc(C(F)(F)F)n3ncc(C#Cc4cc(S(N)(=O)=O)c(F)cc4F)c3n2)ccc1Cl` [Example 111, 5-[5-(4-Chloro-3-methyl-phenyl)-7-trifluoromethyl-pyrazolo[1,5-a]pyrimidin-3-ylethynyl]-2,4-difluoro-benzenesulfonamide], the melting point came to 294 °C.

On to `CC(CO)(CO)NS(=O)(=O)c1cncc(C#Cc2cnn3c(C4CC4)cc(-c4ccc(C(F)(F)F)cc4)nc23)c1` [Example 80, 5-[7-Cyclopropyl-5-(4-trifluoromethyl-phenyl)-pyrazolo[1,5-a]pyrimidin-3-ylethynyl]-pyridine-3-sulfonic acid (2-hydroxy-1-hydroxymethyl-1-methyl-ethyl)-amide], for which the melting point lay in the range of 190 to 191 °C.

As to `O=S(=O)(NC(CO)CO)c1ccc(C#Cc2cnn3c(C(F)F)cc(-c4ccc(C(F)(F)F)cc4)nc23)s1` [Example 270, 5-[7-Difluoromethyl-5-(4-trifluoromethyl-phenyl)-pyrazolo[1,5-a]pyrimidin-3-ylethynyl]-thiophene-2-sulfonic acid (2-hydroxy-1-hydroxymethyl-ethyl)-amide], the melting point came out at 152 °C.

Molecule `Cc1cc(-c2ccc(C(F)(F)F)cc2)nc2c(C#Cc3ccc(S(N)(=O)=O)cc3)cnn12` [Example 150, 4-[7-Methyl-5-(4-trifluoromethyl-phenyl)-pyrazolo[1,5-a]pyrimidin-3-ylethynyl]-benzenesulfonamide] had a melting point of 282 to 284 °C.

In turn, `Cc1cc(-c2ccc(Cl)cc2)nc2c(C#Cc3ccc(C(C)(C)O)cc3)cnn12` [Example 301, 2-{4-[5-(4-Chloro-phenyl)-7-methyl-pyrazolo[1,5-a]pyrimidin-3-ylethynyl]-phenyl}-propan-2-ol] showed a melting point of 112 to 115 °C.

Take `CC(C)(O)c1ccc(C#Cc2cnn3c(C(F)(F)F)cc(-c4ccc(C(F)(F)F)cc4)nc23)cc1` [Example 202, 2-{4-[7-Trifluoromethyl-5-(4-trifluoromethyl-phenyl)-pyrazolo[1,5-a]pyrimidin-3-ylethynyl]-phenyl}-propan-2-ol]: the melting point lay within 170 to 171 °C.

As for `O=S(=O)(NC(CO)CO)c1ccc(C#Cc2cnn3c(C(F)F)cc(-c4cccc(C(F)(F)F)c4)nc23)s1` [Example 265, 5-[7-Difluoromethyl-5-(3-trifluoromethyl-phenyl)-pyrazolo[1,5-a]pyrimidin-3-ylethynyl]-thiophene-2-sulfonic acid (2-hydroxy-1-hydroxymethyl-ethyl)-amide], the melting point was 153 °C.

Take `Cc1ncccc1C#Cc1cnn2c(C(F)(F)F)cc(-c3ccc(C(F)(F)F)cc3)nc12` [Example 12, 3-(2-Methyl-pyridin-3-ylethynyl)-7-trifluoromethyl-5-(4-trifluoromethyl-phenyl)-pyrazolo[1,5-a]pyrimidine]: the melting point amounted to 198 °C.

Turning to `Cc1ccc(C#Cc2cnn3c(C(F)(F)F)cc(-c4ccc(C(F)(F)F)cc4)nc23)cc1S(N)(=O)=O` [Example 35, 2-Methyl-5-[7-trifluoromethyl-5-(4-trifluoromethyl-phenyl)-pyrazolo[1,5-a]pyrimidin-3-ylethynyl]-benzenesulfonamide], the melting point was in the range of 255 to 267 °C.

Molecule `Cc1cc(-c2cc(C(F)F)n3ncc(C#Cc4ccc(S(=O)(=O)N5CCN(C)CC5)s4)c3n2)ccc1Cl` [Example 255, 5-(4-Chloro-3-methyl-phenyl)-7-difluoromethyl-3-[5-(4-methyl-piperazine-1-sulfonyl)-thiophen-2-ylethynyl]-pyrazolo[1,5-a]pyrimidine] showed a melting point of 191 °C.

`NS(=O)(=O)c1ccc(C#Cc2cnn3c(C4CC4)cc(-c4ccc(C(F)(F)F)cc4)nc23)cc1` [Example 76, 4-[7-Cyclopropyl-5-(4-trifluoromethyl-phenyl)-pyrazolo[1,5-a]pyrimidin-3-ylethynyl]-benzenesulfonamide]: the melting point was 228 to 230 °C.

`CC(O)c1ccc(C#Cc2cnn3c(C(F)(F)F)cc(-c4ccc(C(F)(F)F)cc4)nc23)cc1` (centres unmarked) [Example 52, 1-{4-[7-Trifluoromethyl-5-(4-trifluoromethyl-phenyl)-pyrazolo[1,5-a]pyrimidin-3-ylethynyl]-phenyl}-ethanol] had a melting point of 175 to 178 °C.

On to `NS(=O)(=O)c1cccc(C#Cc2cnc3c(C(F)(F)F)cc(-c4ccc(C(F)(F)F)cc4)cn23)c1` [Example 194, 3-[8-Trifluoromethyl-6-(4-trifluoromethyl-phenyl)-imidazo[1,2-a]pyridin-3-ylethynyl]-benzenesulfonamide], for which the melting point was found to be 240 °C.

`NS(=O)(=O)c1ccc(C#Cc2cnn3c(C(F)F)cc(-c4ccc(C(F)(F)F)cc4)nc23)c(F)c1` [Example 48, 4-[7-Difluoromethyl-5-(4-trifluoromethyl-phenyl)-pyrazolo[1,5-a]pyrimidin-3-ylethynyl]-3-fluoro-benzenesulfonamide] showed a melting point of 230 to 232 °C.

As to `CN(C)CCNS(=O)(=O)c1cc(C#Cc2cnn3c(C(F)F)cc(-c4ccc(C(F)(F)F)cc4)nc23)c(F)cc1F` [Example 134, 5-[7-Difluoromethyl-5-(4-trifluoromethyl-phenyl)-pyrazolo[1,5-a]pyrimidin-3-ylethynyl]-N-(2-dimethylamino-ethyl)-2,4-difluoro-benzenesulfonamide], the melting point lay in the range of 165 to 166 °C.

`Cc1ccc(C#Cc2cnn3c(C(F)(F)F)cc(-c4ccc(C(F)(F)F)cc4)nc23)cc1S(=O)(=O)NCCO` [Example 34, N-(2-Hydroxy-ethyl)-2-methyl-5-[7-trifluoromethyl-5-(4-trifluoromethyl-phenyl)-pyrazolo[1,5-a]pyrimidin-3-ylethynyl]-benzenesulfonamide] came in with a melting point of 174 to 175 °C.

`Cc1cc(-c2ccc(Cl)cc2)cn2c(C#Cc3cncc(S(=O)(=O)NC(C)(C)CO)c3)cnc12` [Example 230, 5-[6-(4-Chloro-phenyl)-8-methyl-imidazo[1,2-a]pyridin-3-ylethynyl]-pyridine-3-sulfonic acid (2-hydroxy-1,1-dimethyl-ethyl)-amide] gave a melting point of 215 to 217 °C.

On to `O=S(=O)(c1ccc(C#Cc2cnn3c(C(F)F)cc(-c4ccc(C(F)(F)F)cc4)nc23)cc1)N1CCOCC1` [Example 137, 7-Difluoromethyl-3-[4-(morpholine-4-sulfonyl)-phenylethynyl]-5-(4-trifluoromethyl-phenyl)-pyrazolo[1,5-a]pyrimidine], for which the melting point lay in the range of 227 to 228 °C.

Take `CNc1ccc(C#Cc2cnn3c(C(F)(F)F)cc(-c4ccc(C(F)(F)F)cc4)nc23)cn1` [Example 199, Methyl-{5-[7-trifluoromethyl-5-(4-trifluoromethyl-phenyl)-pyrazolo[1,5-a]pyrimidin-3-ylethynyl]-pyridin-2-yl}-amine]: the melting point came out at 187 °C.

On to `Cc1cc(-c2cc(C(F)(F)F)n3ncc(C#Cc4ccc(S(=O)(=O)NC(C)(C)C)s4)c3n2)ccc1Cl` [Example 115, 5-[5-(4-Chloro-3-methyl-phenyl)-7-trifluoromethyl-pyrazolo[1,5-a]pyrimidin-3-ylethynyl]-thiophene-2-sulfonic acid tert-butylamide], for which the melting point turned out to be 244 °C.

With `CC(=O)Nc1ncc(C#Cc2cnn3c(C(F)(F)F)cc(-c4ccc(C(F)(F)F)cc4)nc23)cn1` [Example 245, N-{5-[7-Trifluoromethyl-5-(4-trifluoromethyl-phenyl)-pyrazolo[1,5-a]pyrimidin-3-ylethynyl]-pyrimidin-2-yl}-acetamide], the melting point was 293 °C.

As for `O=S(=O)(NCCO)c1cccc(C#Cc2cnn3c(C(F)F)cc(-c4ccc(C(F)(F)F)cc4)nc23)c1` [Example 147, 3-[7-Difluoromethyl-5-(4-trifluoromethyl-phenyl)-pyrazolo[1,5-a]pyrimidin-3-ylethynyl]-N-(2-hydroxy-ethyl)-benzenesulfonamide], the melting point was 113 to 115 °C.

With `Cc1ccc(C#Cc2cnn3c(C(F)(F)F)cc(-c4ccc(C(F)(F)F)cc4)nc23)cn1` [Example 9, 3-(6-Methyl-pyridin-3-ylethynyl)-7-trifluoromethyl-5-(4-trifluoromethyl-phenyl)-pyrazolo[1,5-a]pyrimidine], the melting point was determined as 195 °C.

As to `Cc1cc(-c2ccc(C(F)(F)F)cc2)cn2c(C#Cc3cnc(N)nc3)cnc12` [Example 220, 5-[8-Methyl-6-(4-trifluoromethyl-phenyl)-imidazo[1,2-a]pyridin-3-ylethynyl]-pyrimidin-2-ylamine], the melting point is 236 °C.

Molecule `CN(C)CCNS(=O)(=O)c1ccc(C#Cc2cnn3c(C(F)(F)F)cc(-c4ccc(C(F)(F)F)cc4)nc23)cc1` [Example 126, N-(2-Dimethylamino-ethyl)-4-[7-trifluoromethyl-5-(4-trifluoromethyl-phenyl)-pyrazolo[1,5-a]pyrimidin-3-ylethynyl]-benzenesulfonamide] showed a melting point of 193 to 194 °C.

The molecule `CN(C)CCNS(=O)(=O)c1ccc(C#Cc2ncn3c(C(F)(F)F)cc(-c4ccc(C(F)(F)F)cc4)nc23)s1` [Example 267, 5-[4-Trifluoromethyl-2-(4-trifluoromethyl-phenyl)-imidazo[1,5-a]pyrimidin-8-ylethynyl]-thiophene-2-sulfonic acid (2-dimethylamino-ethyl)-amide] displayed a melting point of 178 °C.

Values taken from patent US8063048B2, “Acetylenyl-pyrazolo-pyrimidine derivatives” (Hoffmann-La Roche Inc., priority 2005, dated 2011).
